Measurements taken from ChEMBL document CHEMBL4177737, “Identification of bicyclic hexafluoroisopropyl alcohol sulfonamides as retinoic acid receptor-related orphan receptor gamma (RORγ/RORc) inverse agonists. Employing structure-based drug design to improve pregnane X receptor (PXR) selectivity” (Bioorg Med Chem Lett, 2018).
Values belong to the molecule of their own block, whether it stands above or below them.

Assays:
PXR (NR1I2) = molecular target: T1, PXR (NR1I2) (Homo sapiens, UniProt O75469); assay: (§1) Transactivation of PXR in human HepG2 cells by receptor transactivation assay relative to untreated control; assay type: ADME, cell-based; details: HepG2 cells, read-out: %max
T1 sequence (O75469 whole entry): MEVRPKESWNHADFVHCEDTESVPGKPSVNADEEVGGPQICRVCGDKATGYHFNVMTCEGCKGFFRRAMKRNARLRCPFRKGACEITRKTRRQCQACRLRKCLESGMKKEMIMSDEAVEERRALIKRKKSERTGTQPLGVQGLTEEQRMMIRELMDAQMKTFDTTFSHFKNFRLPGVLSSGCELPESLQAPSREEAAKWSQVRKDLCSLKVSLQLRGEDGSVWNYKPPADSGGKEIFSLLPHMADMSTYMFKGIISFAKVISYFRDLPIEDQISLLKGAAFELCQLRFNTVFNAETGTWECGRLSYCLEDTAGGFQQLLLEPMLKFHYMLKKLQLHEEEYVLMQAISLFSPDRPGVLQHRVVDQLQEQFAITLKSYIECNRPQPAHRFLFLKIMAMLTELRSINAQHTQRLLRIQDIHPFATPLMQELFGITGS

[1] = Drug level in Balb/c mouse at 30 mg/kg, po BID measured at 7.5 hrs on day 5; assay type: ADME, organism-based; details: in vivo, read-out: Drug uptake
[2] = Drug level in Balb/c mouse at 30 mg/kg, po BID measured at 1 hr on day 5; assay type: ADME, organism-based; details: in vivo, read-out: Drug uptake
[3] = Drug level in Balb/c mouse at 100 mg/kg, po BID measured at 1 hr on day 5; assay type: ADME, organism-based; details: in vivo, read-out: Drug uptake
[4] = molecular target: T2, Nuclear receptor subfamily 1 group I member 2 (Homo sapiens, UniProt O75469); assay: Transactivation of PXR in human HepG2 cells by receptor transactivation assay; assay type: ADME, cell-based
T2 sequence (O75469 whole entry): T1 sequence (O75469 whole entry)

[5] = Drug level in Balb/c mouse at 100 mg/kg, po BID measured at 1 hr on day 1; assay type: ADME, organism-based; details: in vivo, read-out: Drug uptake
[6] = Stability in mouse liver microsomes assessed as parent compound remaining incubated for 10 mins; assay type: ADME, microsome
[7] = Drug level in Balb/c mouse at 100 mg/kg, po BID measured at 23.5 hrs on day 1; assay type: ADME, organism-based; details: in vivo, read-out: Drug uptake
[8] = molecular target: T3, Oxysterols receptor LXR-beta (Homo sapiens, UniProt P55055); assay: Agonist activity at GAL4-tagged human LXRbeta assessed as receptor activation expressed in African green monkey CV1 cells by luciferase reporter gene assay; assay type: cell-based
T3 sequence (P55055 whole entry): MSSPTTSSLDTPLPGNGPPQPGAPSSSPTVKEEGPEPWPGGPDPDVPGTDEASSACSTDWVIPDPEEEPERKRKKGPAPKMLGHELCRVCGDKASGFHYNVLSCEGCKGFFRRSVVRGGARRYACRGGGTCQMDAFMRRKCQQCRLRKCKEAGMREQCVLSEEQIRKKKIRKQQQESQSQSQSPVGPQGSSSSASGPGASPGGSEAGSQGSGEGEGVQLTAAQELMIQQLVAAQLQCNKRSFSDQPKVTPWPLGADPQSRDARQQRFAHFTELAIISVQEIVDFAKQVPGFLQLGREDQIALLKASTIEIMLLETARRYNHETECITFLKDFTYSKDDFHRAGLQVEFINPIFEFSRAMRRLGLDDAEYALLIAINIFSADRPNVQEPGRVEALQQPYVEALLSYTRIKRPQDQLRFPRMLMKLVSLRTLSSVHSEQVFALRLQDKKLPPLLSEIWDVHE

Mus musculus [9] = assay: Inhibition of IL-2/IL-23 induced IL-17 production in C57BL/6 mouse challenged 3 times with IL-2/IL-23 (at 0, 7 and 23 hrs) after IL-2 alone priming (-24 hrs) at 25 mg/kg, po dosed 30 mins prior to each IL-2/IL-23 co-administration and measured after 7 hrs post last IL-2/IL-23 challenge; assay type: functional; details: C57BL/6, po
[10] = Drug level in Balb/c mouse at 30 mg/kg, po BID measured at 23.5 hrs on day 1; assay type: ADME, organism-based; details: in vivo, read-out: Drug uptake
[11] = Drug level in Balb/c mouse at 30 mg/kg, po BID measured at 23.5 hrs on day 5; assay type: ADME, organism-based; details: in vivo, read-out: Drug uptake
[12] = molecular target: T4, Oxysterols receptor LXR-alpha (Homo sapiens, UniProt Q13133); assay: Agonist activity at GAL4-tagged human LXRalpha assessed as receptor activation expressed in African green monkey CV1 cells by luciferase reporter gene assay; assay type: cell-based
T4 sequence (Q13133 whole entry): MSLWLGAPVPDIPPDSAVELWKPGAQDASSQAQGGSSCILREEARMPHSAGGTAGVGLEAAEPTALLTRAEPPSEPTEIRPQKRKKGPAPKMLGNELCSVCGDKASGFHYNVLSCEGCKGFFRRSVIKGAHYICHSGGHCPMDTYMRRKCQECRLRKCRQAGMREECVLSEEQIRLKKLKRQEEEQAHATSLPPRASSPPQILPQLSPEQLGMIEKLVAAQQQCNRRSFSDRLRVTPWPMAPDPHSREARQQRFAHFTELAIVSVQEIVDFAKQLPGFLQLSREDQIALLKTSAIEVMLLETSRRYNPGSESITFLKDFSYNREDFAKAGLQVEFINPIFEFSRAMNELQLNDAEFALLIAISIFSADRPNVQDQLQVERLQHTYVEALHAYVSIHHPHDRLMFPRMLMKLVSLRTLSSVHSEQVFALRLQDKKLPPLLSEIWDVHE

[13] = Drug level in Balb/c mouse at 100 mg/kg, po BID measured at 7.5 hrs on day 1; assay type: ADME, organism-based; details: in vivo, read-out: Drug uptake
[14] = Drug level in Balb/c mouse at 30 mg/kg, po BID measured at 7.5 hrs on day 1; assay type: ADME, organism-based; details: in vivo, read-out: Drug uptake
Mus musculus [15] = assay: Inhibition of IL-2/IL-23 induced IL-17 production in C57BL/6 mouse challenged 3 times with IL-2/IL-23 (at 0, 7 and 23 hrs) after IL-2 alone priming (-24 hrs) at 50 mg/kg, po dosed 30 mins prior to each IL-2/IL-23 co-administration and measured after 7 hrs post last IL-2/IL-23 challenge; assay type: functional; details: C57BL/6, po
[16] = Drug level in Balb/c mouse at 30 mg/kg, po BID measured at 1 hr on day 1; assay type: ADME, organism-based; details: in vivo, read-out: Drug uptake
[17] = Stability in human liver microsomes assessed as parent compound remaining incubated for 10 mins; assay type: ADME, microsome; details: for Stability: microsomes, 10 min
[18] = Drug level in Balb/c mouse at 100 mg/kg, po BID measured at 7.5 hrs on day 5; assay type: ADME, organism-based; details: in vivo, read-out: Drug uptake
[19] = molecular target: T2, Nuclear receptor subfamily 1 group I member 2; assay: as §1; assay type: ADME, cell-based; details: hepg2
[20] = molecular target: T5, Nuclear receptor ROR-alpha (Homo sapiens, UniProt P35398); assay: Inverse agonist activity at Gal4-tagged human RORalpha ligand binding domain expressed in human Jurkat cells by native IL17 promoter driven luciferase reporter gene assay; assay type: cell-based
T5 sequence (P35398 whole entry): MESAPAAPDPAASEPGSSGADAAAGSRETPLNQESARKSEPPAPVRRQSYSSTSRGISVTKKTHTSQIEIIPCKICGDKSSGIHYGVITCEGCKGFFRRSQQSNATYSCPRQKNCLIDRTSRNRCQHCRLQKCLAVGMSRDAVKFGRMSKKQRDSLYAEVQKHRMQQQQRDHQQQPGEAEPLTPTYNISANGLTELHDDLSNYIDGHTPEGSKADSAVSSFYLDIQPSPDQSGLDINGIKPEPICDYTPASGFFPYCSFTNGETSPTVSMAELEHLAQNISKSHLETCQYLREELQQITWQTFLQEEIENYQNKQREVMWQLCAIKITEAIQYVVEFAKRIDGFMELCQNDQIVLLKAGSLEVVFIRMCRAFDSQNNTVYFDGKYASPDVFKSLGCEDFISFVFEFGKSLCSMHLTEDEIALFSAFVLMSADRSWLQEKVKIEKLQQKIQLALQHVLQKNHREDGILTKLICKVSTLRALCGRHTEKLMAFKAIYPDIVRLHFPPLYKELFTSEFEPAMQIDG

[21] = molecular target: T6, Nuclear receptor ROR-beta (Homo sapiens, UniProt Q92753); assay: Inverse agonist activity at Gal4-tagged human RORbeta ligand binding domain expressed in human Jurkat cells by native IL17 promoter driven luciferase reporter gene assay; assay type: cell-based
T6 sequence (Q92753 whole entry): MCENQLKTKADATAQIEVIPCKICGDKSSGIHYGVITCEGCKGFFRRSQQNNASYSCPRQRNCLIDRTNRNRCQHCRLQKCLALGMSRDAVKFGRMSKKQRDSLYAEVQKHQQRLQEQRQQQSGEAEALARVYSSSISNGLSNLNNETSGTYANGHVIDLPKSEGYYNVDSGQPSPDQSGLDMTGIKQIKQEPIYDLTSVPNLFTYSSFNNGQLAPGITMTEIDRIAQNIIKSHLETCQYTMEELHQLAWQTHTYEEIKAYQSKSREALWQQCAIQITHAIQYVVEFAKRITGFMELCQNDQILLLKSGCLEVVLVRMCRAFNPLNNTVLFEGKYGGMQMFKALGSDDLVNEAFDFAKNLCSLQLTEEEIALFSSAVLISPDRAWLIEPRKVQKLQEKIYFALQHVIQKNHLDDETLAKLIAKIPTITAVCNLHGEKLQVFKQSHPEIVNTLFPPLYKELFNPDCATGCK

[22] = molecular target: T7, Nuclear receptor ROR-gamma (Homo sapiens, UniProt P51449); assay: Inverse agonist activity at Gal4-tagged human RORgammat ligand binding domain expressed in human Jurkat cells by native IL17 promoter driven luciferase reporter gene assay; assay type: cell-based
T7 sequence (P51449 whole entry): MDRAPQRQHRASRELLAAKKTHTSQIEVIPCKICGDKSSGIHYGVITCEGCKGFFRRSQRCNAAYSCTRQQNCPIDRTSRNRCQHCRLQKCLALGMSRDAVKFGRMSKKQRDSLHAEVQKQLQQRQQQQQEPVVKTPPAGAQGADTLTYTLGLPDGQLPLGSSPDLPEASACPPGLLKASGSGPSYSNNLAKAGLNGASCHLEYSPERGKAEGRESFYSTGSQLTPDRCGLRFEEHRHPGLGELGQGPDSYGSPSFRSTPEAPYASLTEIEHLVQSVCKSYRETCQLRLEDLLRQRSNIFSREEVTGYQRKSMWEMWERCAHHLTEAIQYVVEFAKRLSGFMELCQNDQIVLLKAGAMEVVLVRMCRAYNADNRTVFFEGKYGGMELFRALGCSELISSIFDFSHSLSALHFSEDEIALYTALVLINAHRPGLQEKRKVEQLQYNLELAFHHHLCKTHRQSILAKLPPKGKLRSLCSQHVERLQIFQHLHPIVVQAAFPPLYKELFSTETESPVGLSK

[23] = molecular target: T6, Nuclear receptor ROR-beta; assay: Agonist activity at Gal4-tagged human RORbeta ligand binding domain expressed in human Jurkat cells by native IL17 promoter driven luciferase reporter gene assay; assay type: cell-based
[24] = molecular target: T7, Nuclear receptor ROR-gamma; assay: Agonist activity at Gal4-tagged human RORgammat ligand binding domain expressed in human Jurkat cells by native IL17 promoter driven luciferase reporter gene assay; assay type: cell-based
[25] = molecular target: T5, Nuclear receptor ROR-alpha; assay: Agonist activity at Gal4-tagged human RORalpha ligand binding domain expressed in human Jurkat cells by native IL17 promoter driven luciferase reporter gene assay; assay type: cell-based
[26] = liver microsomes, read-out: Stability

- Emax (PXR (NR1I2)): 100%
- concentration at 7.5 h [1]: 21 nM
- concentration at 1 h [2]: 555 nM
- concentration at 1 h [3]: 2830 nM
- EC50 [4]: 2000 nM
- concentration at 1 h [5]: 13900 nM
- remaining at 10 min [6, 26]: 62%
- concentration at 23.5 h [7]: 19 nM
- EC50 [8]: > 7500 nM
- concentration at 23.5 h [10]: 5 nM
- concentration at 23.5 h [11]: 5 nM
- EC50 [12]: > 7500 nM
- concentration at 7.5 h [13]: 2460 nM
- concentration at 7.5 h [14]: 134 nM
- concentration at 1 h [16]: 3490 nM
- remaining at 10 min [17, 26]: 56%
- concentration at 7.5 h [18]: 61 nM
SMILES: CC(C)(O)[C@H](F)CNC(=O)C[C@@H]1CCc2cc(C(O)(C(F)(F)F)C(F)(F)F)ccc2N1S(=O)(=O)c1ccc(F)cc1
- inhibition in vivo at 25 mg/kg (Mus musculus [9]): 74%
- inhibition in vivo at 50 mg/kg (Mus musculus [15]): 98%

- %max [19]: 90%
- EC50 [4]: 1100 nM
- EC50 [8]: > 7500 nM
- EC50 [12]: > 7500 nM
- Stability [17]: 5%
SMILES: CC(C)(O)CNC(=O)CC1CSc2cc(C(O)(C(F)(F)F)C(F)(F)F)ccc2N1S(=O)(=O)c1ccc(F)cc1 (stereo in doubt; 30)

- Emax (PXR (NR1I2)): 100%
- EC50 [4]: 20 nM
- EC50 [20]: > 2000 nM
- EC50 [21]: > 2000 nM
- EC50 [22]: 165 nM
- EC50 [8]: 185 nM
- EC50 [23]: > 4000 nM
- EC50 [24]: > 4000 nM
- EC50 [12]: 190 nM
- EC50 [25]: > 4000 nM
SMILES: O=S(=O)(c1ccc(F)cc1)N1CCSc2cc(C(O)(C(F)(F)F)C(F)(F)F)ccc21

- %max [19]: 70%
- EC50 [4]: 1350 nM
- Stability ([6]; microsomes, 10 min): 1%
- EC50 [8]: 3710 nM
- EC50 [12]: 315 nM
- Stability [17]: 2%
SMILES: CC(C)(O)CNC(=O)CC1CSc2cc(C(O)(C(F)(F)F)C(F)(F)F)ccc2N1S(=O)(=O)c1ccc(F)cc1 (stereo in doubt; 31)
